Experiments:
[1] = system: Tetranychus urticae; experiment: Effect on the spider mites Tetranychus urticae (spray on infested bean plants); format: in vivo; conditions: 168 h, read-out: mortality of all mite stages
Protocol: Effect on the Spider Mites Tetranychus urticae
Bean plants (Phaseolus vulgaris) which were severely infested with a complete population of spider mites (Tetranychus urticae) were sprayed to runoff point with an aqueous solution of the formulated preparation to be tested. The mortality of all mite stages was determined after 7 days. At a concentration of 300 ppm (based on active substance content), a 90-100% mortality was shown by the preparations of Examples 1, 2, 3, 4, 7, 8, 9, 14, 18, 21, 31, 40, 41, 43, 44, 47, 51, 106, 152 and 153.

[2] = system: Aphis fabae; experiment: Effect on the aphid Aphis fabae (spray on infested field beans); format: in vivo; conditions: 72 h, read-out: mortality of the aphids
Protocol: Effect on the Aphid Aphis fabae
Field beans (Vicia faba) which were densly populated with the black bean aphid (Aphis fabae) were sprayed to runoff point with an aqueous solution of the formulated preparation to be tested. The mortality of the aphids was determined after 3 days. At a concentration of 300 ppm (based on the active substance content), a 90-100% mortality was shown by the preparations of Examples 1, 2, 3, 4, 7, 8, 152.

[3] = system: Ctenocephalides felis; experiment: Effect on developmental stages of the cat flea Ctenocephalides felis (treated larval medium); format: in vivo; conditions: 1000 ppm in larval nutrient medium, approx. 30 flea eggs, read-out: mortality (hatching of flea larvae and development into pupae and adult fleas)
Description: Effect on Developmental Stages of the Cat Flea Ctenocephalides felis
The larval nutrient medium of the cat flea, composed of equal parts of blood meal and quartz sand, was admixed with the test substance at a concentration of 1000 ppm. Approx. 30 flea eggs freshly obtained from a breeding colony were transferred onto the medium. To assess the affect of the preparation, hatching of the flea larvae and their development into pupae and adult fleas was observed. A mortality of 100% was caused by the test substances of Examples 2, 3 and 4.

[4] = system: Heliothis virescens; experiment: Effect on the egg-larval stage of Heliothis virescens; format: in vivo; conditions: 144 h, read-out: mortality of eggs and any larvae hatched from them
Protocol: Effect on the Egg-Larval Stage of Heliothis virescens
A Petri dish whose bottom was covered with filter paper and which contained approx. 5 ml of nutrient medium was prepared. Filter paper sections containing approx. 30 24-hour-old eggs of the tobacco budworm (Heliothis virescens) were immersed for 5 seconds into an aqueous solution of the formulated preparation to be tested and subsequently placed in the Petri dish. A further 200 μl of the aqueous solution were distributed over the nutrient medium. After the Petri dish had been sealed, it was stored in a controlled-environment cabinet at approx. 25° C. After 6 days' storage, the mortality of the preparation on the eggs and any larvae hatched from them was determined. At a concentration of 300 ppm (based on the active substance content), a 90-100% mortality was caused by the preparations of Examples 1, 2, 3, 4, 5, 6, 7, 8, 14, 17, 21, 22, 23, 34, 35, 39, 40, 43, 44, 106.

[5] = system: Diabrotica undecimpunctata; experiment: Effect on the corn budworm Diabrotica undecimpunctata (L2 larvae, soil application); format: in vivo; conditions: for mortality at 300 ppm: Diabrotica undecimpunctata, soil, 120 h, read-out: mortality of the test animals; for mortality of the test animals: 300 ppm (based on active substance content), 1 ml pipetted onto soil, L2 larvae, after 5 days at 21° C.
Protocol: Effect on the Corn Budworm Diabrotica undecimpunctata
Maize seed was pregerminated for 6 hours while submerged in water, then placed into 10-ml glass tubes and covered with 2 ml of soil in each case. After 1 ml of water had been added, the plants remained in the glass tubes at 21° C. until plant length was approx. 3 cm. 10 L2 larvae of the corn budworm (Diabrotica undecimpunctata) were then introduced into each tube on the soil. Two hours later, 1 ml of an aqueous solution of the formulated preparation to be tested were pipetted onto the soil surface in the tubes. After storage for 5 days under laboratory conditions at 21° C., the soil and root sections were examined for live Diabrotica larvae and the mortality was determined. At a concentration of 300 ppm (based on the active substance content), a 100% mortality of the test animals employed was shown by the preparations of Example 2, 3, 5, 9, 19, 39.

[6] = system: Lucilia cuprina; experiment: Effect on the larvae of the copperbottle Lucilia cuprina (treated nutrient medium); format: in vivo; conditions: for mortality at 100 ppm: Lucilia cuprina, 72 h, read-out: mortality in the fly larvae; for mortality in the fly larvae: 100 ppm in larval nutrient medium of ground mutton, monitored over 72 hours
Protocol: Effect on the Larvae of the Copperbottle Lucilia cuprina
In a sample container, 20 recently hatched larvae of the copperbottle Lucilia cuprina were placed on a larval nutrient medium of ground mutton which contained the test substance in a concentration of 100 ppm. Larval growth on the nutrient medium is monitored over 72 hours up to larva 3. At a concentration of 100 ppm (based on the active substance content), a 100% mortality in the fly larvae employed was shown by the preparations of Examples 2, 3, 4, 5, 105, 106.

[7] = system: Spodoptera litoralis; experiment: Effect on the butterfly larva Spodoptera litoralis (L4 larvae, Petri dish spray); format: in vivo; conditions: 96 h, read-out: larval mortality
Protocol: Effect on the Butterfly Larva Spodoptera litoralis
Ten L4 larvae of the Egyptian cotton leafworm (Spodoptera litoralis) were introduced into a Petri dish whose bottom was covered with filter paper and contained approx. 5 ml of nutrient medium. Filter paper, nutrient paper and the larvae which had been introduced were then sprayed with an aqueous solution of the formulated preparation to be tested. The Petri dish was subsequently sealed with a lid. After 4 days' storage at approx. 23° C., the effect of the preparation on the larvae was determined. At a concentration of 300 ppm (based on the active substance content), a 90-100% larval mortality was caused by the preparations of Examples 3, 4, 22, 105, 106.

SMILES	mortality at 300 ppm [1] [%]	mortality at 300 ppm [2] [%]	mortality at 300 ppm [4] [%]	mortality at 300 ppm [5] [%]	mortality at 100 ppm [6] [%]	other results
CCOc1ccc(-c2ccc(C3COC(c4c(F)cccc4F)=N3)cc2)cn1 (stereo not shown) [Example 2, 2-(2,6-Difluorophenyl)-4-[4-(2-ethoxypyridin-5-yl)phenyl]oxazoline]	90 to 100	90 to 100	90 to 100	100	100	mortality at 1000 ppm [3]: 100%
Fc1cccc(F)c1C1=NC(c2ccc(-c3ccc(OCC(F)(F)F)nc3)cc2)CO1 (stereo not shown) [Example 3, 2-(2,6-Difluorophenyl)-4-[4-(2-trifluoroethoxypyridin-5-yl)phenyl]oxazoline]	90 to 100	90 to 100	90 to 100	100	100	mortality at 1000 ppm [3]: 100%; mortality at 300 ppm [7]: 90 to 100%
CCCOc1ccc(-c2ccc(C3COC(c4c(F)cccc4F)=N3)cc2)cn1 (stereo not shown) [Example 4, 2-(2,6-Difluorophenyl)-4-[4-(2-n-propyloxypyridin-5-yl)phenyl]oxazoline]	90 to 100	90 to 100	90 to 100		100	mortality at 1000 ppm [3]: 100%; mortality at 300 ppm [7]: 90 to 100%
CC(C)Oc1ccc(-c2ccc(C3COC(c4c(F)cccc4F)=N3)cc2)cn1 (stereo not shown) [Example 5]						mortality of the test animals [5]: 100%; mortality in the fly larvae [6]: 100%
CC(C)COc1ccc(-c2ccc(C3COC(c4c(F)cccc4F)=N3)cc2)cn1 (stereo not shown) [Example 8, 2-(2,6-Difluorophenyl)-4-[4-(2-isobutyloxypyridin-5-yl)phenyl]oxazoline]	90 to 100	90 to 100	90 to 100			
CCC(C)Oc1ccc(-c2ccc(C3COC(c4c(F)cccc4F)=N3)cc2)cn1 (stereo not shown) [Example 9]						mortality of the test animals [5]: 100%
Fc1cccc(F)c1C1=NC(c2ccc(-c3ccc(OCC(F)(F)F)nc3)cc2)CS1 (stereo not shown) [Example 19, 2-(2,6-Difluorophenyl)-4-[4-(2-trifluoroethoxypyridin-5-yl)phenyl]thiazoline]				100		
CCCc1ccc(-c2ccc(C3COC(c4c(F)cccc4F)=N3)cc2)cn1 (stereo not shown) [Example 34, 2-(2,6-Difluorophenyl)-4-[4-(2-n-propylpyridin-5-yl)phenyl]oxazoline]			90 to 100			
CCSc1ccc(-c2ccc(C3COC(c4c(F)cccc4F)=N3)cc2)cn1 (stereo not shown) [Example 39, 2-(2,6-Difluorophenyl)-4-[4-(2-ethylthiopyridin-5-yl)phenyl]oxazoline]			90 to 100	100		
CC[S+]([O-])c1ccc(-c2ccc(C3COC(c4c(F)cccc4F)=N3)cc2)cn1 (stereo not shown) [Example 40, 2-(2,6-Difluorophenyl)-4-[4-(2-ethylsulfinylpyridin-5-yl)phenyl]oxazoline]	90 to 100		90 to 100			
CCOc1ccc(-c2ccc(C3COC(c4c(F)cccc4F)=N3)c(OC)c2)cn1 (stereo not shown) [Example 105]						mortality in the fly larvae [6]: 100%
CCOc1cc(-c2ccc(OCC(F)(F)F)nc2)ccc1C1COC(c2c(F)cccc2F)=N1 (stereo not shown) [Example 106, 2-(2,6-Difluorophenyl)-4-[2-ethoxy-4-(2-trifluoroethoxypyridin-5-yl)phenyl]-oxazoline]	90 to 100		90 to 100		100	mortality at 300 ppm [7]: 90 to 100%
Fc1ccccc1C1=NC(c2ccc(-c3ccc(OCC(F)(F)F)nc3)cc2)CO1 (stereo not shown) [Example 402, 2-(2-Fluorophenyl)-4-[4-(2-trifluoroethoxypyridin-5-yl)phenyl]oxazoline]						melting point: 101 °C
